# Earlier results as cited in patent US9725402B2, “Nitroso compounds as nitroxyl donors and methods of use thereof” (priority 2008, dated 2017).
# Tests used:
# [1] = tested on: myocardial ischemia/reperfusion injury; conditions: administered during ischemia and 5 minutes prior to reperfusion, anesthetized rabbits
# [2] = tested on: cultured breast cancer cells
# breast cancer cells = conditions: mouse xenograft model
# pheochromocytoma = conditions: subcutaneous xenograft, dose nontoxic to nude mice
SMILES,pH at which compound is a nitroxyl donor (nitroxyl donor only at high pH),"species donated under physiological conditions (physiological conditions, oxidative pathway)",toxicity to cancer cells (cancer cells; pH 7.4),cytotoxicity to cancer cells (cancer cells; weakly acidic solutions),myocardial ischemia/reperfusion injury [1],proliferation of cultured breast cancer cells [2],tumor mass (breast cancer cells),tumor growth (pheochromocytoma)
"O=S(=O)(NO)c1ccccc1 [PA, N-hydroxybenzenesulfonamide]",> 9,nitric oxide donor,–,–,–,–,–,–
"[Na+].[Na+].[O-][N+]([O-])=NO [Angeli's salt, sodium α-oxyhyponitrite]",–,–,no toxicity,strong cytotoxicity,increased myocardial ischemia/reperfusion injury,inhibits the proliferation,decreases tumor mass,inhibit tumor growth
